Test results published in ChEMBL document CHEMBL1142249, “Identification and optimization of a novel series of [2.2.1]-oxabicyclo imide-based androgen receptor antagonists” (Bioorg Med Chem Lett, 2008).

Legend:
Androgen receptor [1] = target: T1, Androgen receptor (Homo sapiens, UniProt P10275); experiment: Displacement of [3H]DHT from human androgen receptor in MDA453 cells
T1 sequence (P10275 whole entry): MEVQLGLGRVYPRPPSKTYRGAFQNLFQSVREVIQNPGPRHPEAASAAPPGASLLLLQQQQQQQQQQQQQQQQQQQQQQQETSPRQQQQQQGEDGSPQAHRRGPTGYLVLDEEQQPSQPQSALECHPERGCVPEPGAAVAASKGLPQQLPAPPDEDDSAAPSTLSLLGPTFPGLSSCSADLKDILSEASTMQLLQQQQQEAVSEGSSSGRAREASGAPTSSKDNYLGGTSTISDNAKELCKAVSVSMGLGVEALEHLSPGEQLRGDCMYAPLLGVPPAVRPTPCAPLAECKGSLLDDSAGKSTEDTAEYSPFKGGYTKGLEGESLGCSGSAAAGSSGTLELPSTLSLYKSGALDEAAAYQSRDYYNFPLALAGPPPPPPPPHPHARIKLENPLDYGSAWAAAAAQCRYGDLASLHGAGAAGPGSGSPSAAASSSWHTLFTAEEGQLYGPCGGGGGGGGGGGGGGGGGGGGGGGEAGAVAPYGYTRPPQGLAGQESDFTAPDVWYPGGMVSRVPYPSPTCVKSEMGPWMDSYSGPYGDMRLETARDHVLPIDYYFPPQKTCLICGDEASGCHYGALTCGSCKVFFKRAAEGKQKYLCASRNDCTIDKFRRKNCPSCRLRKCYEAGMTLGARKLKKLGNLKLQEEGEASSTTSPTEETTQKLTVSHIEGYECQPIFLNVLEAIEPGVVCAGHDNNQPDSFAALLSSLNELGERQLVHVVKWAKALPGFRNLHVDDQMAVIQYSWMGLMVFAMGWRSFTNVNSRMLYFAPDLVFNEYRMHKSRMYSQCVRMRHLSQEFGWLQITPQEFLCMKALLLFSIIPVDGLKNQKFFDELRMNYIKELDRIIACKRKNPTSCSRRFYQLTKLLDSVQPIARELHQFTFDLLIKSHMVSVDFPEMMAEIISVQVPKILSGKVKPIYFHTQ

Androgen receptor [2] = target: T1, Androgen receptor
Description: Antagonist activity at human androgen receptor in MDA453 cells by alkaline phosphatase reporter gene assay

Liver microsomes = experiment: Metabolic stability in human liver microsome assessed per milligram of protein; format: ADME
[3] = Drug level in human CWR22R cells xenografted mouse plasma at 10 mg/kg, po after 24 hrs on day 60; format: ADME, organism-based; parameters: dose 10 mg/kg, route oral; conditions: read-out: Drug uptake
[4] = Drug level in human CWR22R cells xenografted mouse plasma at 90 mg/kg, po after 24 hrs on day 60; format: ADME, organism-based; parameters: dose 90 mg/kg, route oral; conditions: read-out: Drug uptake
[5] = Drug level in human CWR22R cells xenografted mouse plasma at 10 mg/kg, po after 1 hr on day 60; format: ADME, organism-based; parameters: dose 10 mg/kg, route oral; conditions: read-out: Drug uptake
[6] = Drug level in human CWR22R cells xenografted mouse plasma at 90 mg/kg, po after 1 hr on day 60; format: ADME, organism-based; parameters: dose 90 mg/kg, route oral; conditions: read-out: Drug uptake
[7] = Tmax in BALB/c mouse at 1.0 mmol/kg, po; format: ADME, organism-based; conditions: in vivo
[8] = AUC (0 to 6 hrs) in BALB/c mouse at 1.0 mmol/kg, po; format: ADME, organism-based; parameters: dose 1 mmol/kg, time < 6 hr, route oral; conditions: plasma
[9] = Cmax in BALB/c mouse at 1.0 mmol/kg, po; format: ADME, organism-based; parameters: dose 1 mmol/kg, route oral; conditions: in vivo
[10] = Drug level in human CWR22R cells xenografted mouse plasma at 50 mg/kg, po after 1 hr on day 60; format: ADME, organism-based; parameters: dose 50 mg/kg, route oral; conditions: read-out: Drug uptake
[11] = Drug level in human CWR22R cells xenografted mouse plasma at 50 mg/kg, po after 24 hrs on day 60; format: ADME, organism-based; parameters: dose 50 mg/kg, route oral; conditions: read-out: Drug uptake

| SMILES | Ki (Androgen receptor [1]) [nM] | IC50 (Androgen receptor [2]) [nM] | other results |
| --- | --- | --- | --- |
| CC12CCC(C)(O1)[C@H]1C(=O)N(c3cccc(C(F)(F)F)c3)C(=O)[C@H]12 | 41 | 36 | – |
| O=C1[C@@H]2C3CCC(O3)[C@@H]2C(=O)N1c1ccc(Cl)c(C(F)(F)F)c1 | 1110 | 3310 | – |
| N#Cc1ccc(N2C(=O)[C@@H]3C4CCC(O4)[C@@H]3C2=O)cc1C(F)(F)F | 1170 | 2860 | – |
| CC12CCC(C)(O1)[C@H]1C(=O)N(c3ccc(C#N)n4nccc34)C(=O)[C@H]12 | 18 | 88 | – |
| CC12CCC(C)(O1)[C@H]1C(=O)N(c3cnc(C#N)c(Cl)c3)C(=O)[C@H]12 | 4 | 38 | – |
| CC12C[C@H](O)C(C)(O1)[C@@H]1C(=O)N(c3ccc(C#N)c(I)c3)C(=O)[C@@H]12 (some centres undefined) | 7.18 | 10 | Stability (Liver microsomes): 0.001 mmol/min/mg; concentration at 24 h [3]: 8 µM; concentration at 24 h [4]: 23.6 µM; concentration at 1 h [5]: 26 µM; concentration at 1 h [6]: 55.5 µM |
| O=C1[C@@H]2C3CCC(C3)[C@@H]2C(=O)N1c1cccc(C(F)(F)F)c1 | 360 | 152 | Tmax [7]: 30 min; AUC(0-t) at 6 h [8]: 0.056 µM·h; Cmax [9]: 0.023 µM |
| O=C1[C@@H]2C3CCC(O3)[C@@H]2C(=O)N1c1ccc(I)c(Cl)c1 | 221 | 350 | – |
| CC12CCC(C)(O1)[C@H]1C(=O)N(c3cc(Cl)cc(Cl)c3)C(=O)[C@H]12 | 3 | 16 | – |
| O=C1[C@@H]2C3CCC(O3)[C@@H]2C(=O)N1c1ccc(Cl)c([N+](=O)[O-])c1 | 692 | 1150 | – |
| CC12CCC(C)(O1)[C@H]1C(=O)N(c3c(N)ccc4nccn34)C(=O)[C@H]12 | 27 | 70 | – |
| CC(C)(C)OC(=O)N1CC2CC1[C@@H]1C(=O)N(c3ccc(C#N)c(C(F)(F)F)c3)C(=O)N21 (some centres undefined) | 40 | 774 | – |
| O=C1[C@@H]2C3CCC(O3)[C@@H]2C(=O)N1c1ccc(Cl)c(Cl)c1 | 377 | 480 | – |
| O=C1[C@@H]2C3CCC(O3)[C@@H]2C(=O)N1c1cccc(C(F)(F)F)c1 | 4100 | 11500 | – |
| CC12CCC(C)(O1)[C@H]1C(=O)N(c3ccc(C#N)c(I)c3)C(=O)[C@H]12 | 1 | 7 | Stability (Liver microsomes): 0.8 mmol/min/mg |
| CC12CCC(C)(O1)[C@H]1C(=O)N(c3ccc([N+](=O)[O-])c(C(F)(F)F)c3)C(=O)[C@H]12 | 17 | 11 | – |
| O=C1[C@@H]2C3CCC(O3)[C@@H]2C(=O)N1c1ccc(Br)c2ccccc12 | 53 | 670 | – |
| COc1cc(N2C(=O)[C@@H]3[C@H](C2=O)C2(C)CCC3(C)O2)ccc1-c1cnco1 | 12 | 20 | – |
| Cc1cc(N2C(=O)[C@@H]3C4CCC(O4)[C@@H]3C2=O)ccc1Cl | 77 | 500 | – |
| CC(O)(CS(=O)(=O)c1ccc(F)cc1)C(=O)Nc1ccc(C#N)c(C(F)(F)F)c1 (centres undefined) [BICALUTAMIDE] | – | – | concentration at 1 h [10]: 48.5 µM; concentration at 24 h [11]: 86 µM; Tmax [7]: 30 min; AUC(0-t) at 6 h [8]: 786 µM·h; Cmax [9]: 110 µM |
| CC12CCC(C)(O1)[C@H]1C(=O)N(c3ccc(C#N)c(C(F)(F)F)c3)C(=O)[C@H]12 | 17 | 7 | – |
| CC12CCC(C)(O1)[C@H]1C(=O)N(c3c(N)ccc4ncsc34)C(=O)[C@H]12 | 17 | 120 | – |
| CC12CCC(C)(O1)[C@H]1C(=O)N(c3ccc([N+](=O)[O-])c4c(Br)cccc34)C(=O)[C@H]12 | 17 | 40 | – |
| CSc1cc(N2C(=O)[C@@H]3[C@H](C2=O)C2(C)CCC3(C)O2)ccc1C#N | 3 | 19 | – |
| Cc1ccc(N2C(=O)[C@@H]3C4CCC(O4)[C@@H]3C2=O)cc1Cl | 486 | 2290 | – |
| O=C1[C@@H]2C3CCC(O3)[C@@H]2C(=O)N1c1ccc([N+](=O)[O-])c2ccccc12 | 3 | > 5000 | Tmax [7]: 30 min; AUC(0-t) at 6 h [8]: 11.4 µM·h; Cmax [9]: 100 µM |
| CC12C[C@@H](O)C(C)(O1)[C@H]1C(=O)N(c3ccc(C#N)c(I)c3)C(=O)[C@H]12 (some centres undefined) | 2.41 | 19 | Stability (Liver microsomes): 0.04 mmol/min/mg |
| CC12CCC(C)(O1)[C@H]1C(=O)N(c3ccc(C#N)c4nsnc34)C(=O)[C@H]12 | 3 | 16 | – |
| CC12CCC(O1)[C@H]1C(=O)N(c3cccc(C(F)(F)F)c3)C(=O)[C@H]12 (some centres undefined) | 410 | 343 | – |
| O=C1[C@H]2C3CCC(C3)N2C(=O)N1c1cccc(C(F)(F)F)c1 (some centres undefined) | 21 | 130 | Tmax [7]: 30 min; AUC(0-t) at 6 h [8]: 11.4 µM·h; Cmax [9]: 1.74 µM |
